# Experimental data as given in patent US6841560B2, “Substituted isoquinoline derivatives and their use as anticonvulsants” (SmithKline Beecham p.l.c., priority 1997, dated 2005).
# Tested on: electrically-induced seizures in mice
# Assay: Maximal electroshock seizure (MEST) threshold test, mouse model
# Assay type: in vivo
# Details: 10 mg/kg oral, suspension in methyl cellulose, one hour post dosing
# Description: (§1) The maximal electroshock seizure (MEST) threshold test in rodents is particularly sensitive for detecting potential anticonvulsant properties^1. In this model, anticonvulsant agents elevate the threshold to electrically-induced seizures whilst proconvulsants lower the seizure threshold.
# Mice (naive male, Charles River, U.K. CD1 strain, 25-30 g) are randomly assigned to groups of 10-20 and dosed orally or intraperitoneally at a dose volume of 10 ml/kg with various doses of compound (0.3-300 mg/kg) or vehicle. Mice are then subjected at 30 or 60 min post dose to a single electroshock (0.1 sec, 50 Hz, sine wave form) administered via corneal electrodes. The mean current and standard error required to induce a tonic seizure in 50% (CC50) of the mice in a particular treatment group is determined by the ‘up and down’ method of Dixon and Mood (1948)^2. Statistical comparisons between vehicle- and drug-treated groups are made using the method of Litchfield and Wilcoxon (1949)^3.
# In control animals the CC50 is usually 14-18 mA. […] If a tonic convulsion does occur, then the current is decreased, and so on until all the animals in the group have been tested.
# Studies are carried out using a Hugo Sachs Electronik Constant Current Shock Generator with totally variable control of shock level from 0 to 300 mA and steps of 2 mA are usually used.
row,SMILES,increase in seizure threshold [%]
1,"CN1CCc2ccc(NC(=O)c3ccc(C(C)(C)C)cc3)cc2C1 [Example 5, N-(2-Methyl-1,2,3,4-tetrahydroisoquinolin-7-yl)-4-t-butylbenzamide]",36
2,"CC(C)Oc1ccc(C(=O)Nc2ccc3c(c2)CN(C)CC3)cc1 [Example 6, N-(2-Methyl-1,2,3,4-tetrahydroisoquinolin-7-yl)-4-iso-propoxybenzamide]",90
3,"CN1CCc2ccc(NC(=O)c3ccc(Oc4ccccc4)cc3)cc2C1 [Example 7, N-(2-Methyl-1,2,3,4-tetrahydroisoquinolin-7-yl)-4-phenoxybenzamide]",23
4,"CN1CCc2ccc(NC(=O)c3cccc(Cl)c3)cc2C1 [Example 4, N-(2-Methyl-1,2,3,4-tetrahydroisoquinolin-7-yl)-3-chlorobenzamide]",24

# Tested on: maximal (tonic hindlimb extension) electroshock seizures in male rats
# Assay: Maximal electroshock seizure (MEST) threshold test, rat model
# Assay type: in vivo
# Details: 2 mg/kg p.o. at 2 h, suspended in 1% methyl cellulose
# Description: as §1
# The threshold for maximal (tonic hindlimb extension) electroshock seizures in male rats (Sprague Dawley, 80-150 g, 6 weeks old) was determined by a Hugo Sachs Electronik stimulator which delivered a constant current (0.3 sec duration, from 1-300 mA in steps of 5-20 mA). The procedure is similar to that outlined above for mouse and full details are as published by Upton et al,.^4
# The percentage increase or decrease in CC50 for each group compared to the control is calculated.
# Drugs are suspended in 1% methyl cellulose.
row,SMILES,increase in CC50 (seizure threshold) compared to control [%]
1,"CCOc1ccc(C(=O)Nc2ccc3c(c2)CN(C)CC3)cc1Br [Example 49, N-(2-Methyl-1,2,3,4-tetrahydroisoquinolin-7-yl)-3-bromo-4-ethoxybenzamide]",325
2,"CC(C)Oc1ccc(C(=O)Nc2ccc3c(c2)CN(C)CC3)cc1Cl [Example 48, N-(2-Methyl-1,2,3,4-tetrahydroisoquinolin-7-yl)-3-chloro-4-iso-propoxybenzamide]",389
3,"CC(C)c1ccc(C(=O)Nc2ccc3c(c2)CN(C)CC3)cc1C#N.Cl [Example 67, N-(2-Methyl-1,2,3,4-tetrahydroisoquinolin-7-yl)-3-cyano-4-iso-propylbenzamide, hydrochloride]",303
4,"COc1ccc(C(=O)Nc2ccc3c(c2)CN(C)CC3)cc1C(F)(F)F [Example 51, N-(2-Methyl-1,2,3,4-tetrahydroisoquinolin-7-yl)-4-methoxy-3-trifluoromethylbenzamide]",545

# Tested on: not given
# Assay: not given
# Details: not given
row,SMILES,melting point [°C]
1,"O=C(Nc1ccc2c(c1)CNCC2)c1ccc(Cl)s1.O=C(O)C(F)(F)F [Example 1, N-(1,2,3,4-Tetrahydroisoquinolin-7-yl)-5-chlorothiophene-2-carboxamide, monotrifluoroacetate]",153 to 155
2,CN1CCc2ccc(NC(=O)c3cccc(C(=O)C(C)(C)C)c3)cc2C1.Cl,197 to 201
